# Source: patent publication US20150266850A1 (E.I.DU PONT DE NEMOURS AND COMPANY, priority 2012, published 2015)
# Marks after values point to notes of the source that are not given here.
# Columns and labels:
# Format in all cases: in vivo
# Settings in all cases: 100 = 100% disease control
# [1] = system: Erysiphe graminis f. sp. tritici; experiment: Test A: wheat powdery mildew, preventive spray on wheat seedlings, visual disease rating
# From the text: (§1) General protocol for preparing test suspensions for Tests A-E: the test compounds were first dissolved in acetone in an amount equal to 11% of the final volume and then suspended at the desired concentration (in ppm) in acetone and purified water (50/50 mix by volume) containing 250 ppm of the surfactant Trem® 014 (polyhydric alcohol esters). The resulting test suspensions were then used in Tests A-E. Spraying a 200 ppm test suspension to the point of run-off on the test plants was the equivalent of a rate of 800 g/ha.
# The test suspension was sprayed to the point of run-off on wheat seedlings. The following day the seedlings were inoculated with a spore dust of Erysiphe graminis f. sp. tritici, (the causal agent of wheat powdery mildew) and incubated in a growth chamber at 20° C. for 8 days, after which time disease ratings were visually made.
# (§2) Results for Tests A-E are given in Table A. In the Table, a rating of 100 indicates 100% disease control and a rating of 0 indicates no disease control (relative to the controls). A dash (-) indicates no test results. All results are for 200 ppm except where followed by an “*”, which indicates 40 ppm or “**”, which indicates 50 ppm.
# [2] = system: Puccinia recondita f sp. tritici; experiment: Test B: wheat leaf rust, preventive spray on wheat seedlings, visual disease rating
# From the text: as §1
# The test suspension was sprayed to the point of run-off on wheat seedlings. The following day the seedlings were inoculated with a spore suspension of Puccinia recondita f sp. tritici (the causal agent of wheat leaf rust) and incubated in a saturated atmosphere at 20° C. for 24 h, and then moved to a growth chamber at 20° C. for 7 days, after which time disease ratings were visually made.
# as §2
# [3] = system: Septoria tritici; experiment: Test C: wheat leaf blotch, preventive spray on wheat seedlings, visual disease rating
# From the text: as §1
# (§3) The test suspension was sprayed to the point of run-off on wheat seedlings. The following day the seedlings were inoculated with a spore suspension of Septoria tritici (the causal agent of wheat leaf blotch) and incubated in a saturated atmosphere at 24° C. for 48 h, and then moved to a growth chamber at 20° C. for 19 days, after which time disease ratings were visually made.
# as §2
# [4] = system: Septoria nodorum; experiment: Test D: wheat glume blotch, preventive spray on wheat seedlings, visual disease rating
# From the text: as §1
# as §3, with “nodorum” for “tritici”, “glume” for “leaf”, “20°” for “24°”, “7” for “19”
# as §2
# [5] = system: Botrytis cinerea; experiment: Test E: tomato botrytis, preventive spray on tomato seedlings, visual disease rating
# From the text: as §1
# The test suspension was sprayed to the point of run-off on tomato seedlings. The following day the seedlings were inoculated with a spore suspension of Botrytis cinerea (the causal agent of tomato botrytis) and incubated in saturated atmosphere at 20° C. for 48 h, and then moved to a growth chamber at 27° C. for 3 additional days, after which time disease ratings were visually made.
# as §2
Molecule,Test A disease control rating ([1]; 200 ppm),Test B disease control rating ([2]; 200 ppm),Test C disease control rating ([3]; 200 ppm),Test D disease control rating ([4]; 200 ppm),Test E disease control rating ([5]; 200 ppm),Test A disease control rating ([1]; 40 ppm (*)),Test B disease control rating ([2]; 40 ppm (*)),Test D disease control rating ([4]; 40 ppm (*)),Test E disease control rating ([5]; 40 ppm (*)),further results
COC(=O)NCc1cc(-n2ncc(-c3ccc(C)cc3OC)n2)ccc1C [Cmpd 7],100%,100%,100%,100%,26%,–,–,–,–,–
COC(=O)NCc1cc(-n2ccc(-c3ccc(OC)cc3F)n2)ccc1C [Cmpd 9],100%,100%,99%,100%,87%,–,–,–,–,–
COC(=O)NCc1cc(-n2ccc(-c3ccc(C)cc3OC)n2)ccc1C [Cmpd 12],100%,100%,97%,100%,95%,–,–,–,–,–
COC(=O)NCc1cc(-n2ccc(-c3ccc(OC)cc3Cl)n2)ccc1C [Cmpd 13],100%,100%,100%,100%,99%,–,–,–,–,–
COC(=O)NCc1cc(-n2ccc(-c3ccc(F)cc3OC)n2)ccc1C [Cmpd 14],100%,100%,100%,100%,97%,–,–,–,–,–
COC(=O)NCc1cc(-c2ccn(-c3ccc(SC)cc3OC)n2)ccc1C [Cmpd 15],96%,100%,77%,100%,64%,–,–,–,–,–
COC(=O)NCc1cc(-c2ccn(-c3ccc(OC)cc3SC)n2)ccc1C [Cmpd 16],97%,100%,85%,100%,97%,–,–,–,–,–
COC(=O)NCc1cc(-c2ccn(-c3ccc(OC)cc3F)n2)ccc1C [Cmpd 19],100%,100%,100%,–,37%,–,–,–,–,–
COC(=O)NCc1cc(-c2ccn(-c3ccc(OC)cc3C#N)n2)ccc1C [Cmpd 21],96%,100%,98%,100%,66%,–,–,–,–,–
COC(=O)NCc1cc(-c2ccn(-c3ccc(OC)cc3[N+](=O)[O-])n2)ccc1C [Cmpd 22],0%,100%,100%,100%,85%,–,–,–,–,–
CCc1cc(OC)ccc1-n1ccc(-c2ccc(C)c(CNC(=O)OC)c2)n1 [Cmpd 26],99%,100%,100%,100%,31%,–,–,–,–,–
COC(=O)NCc1cc(-c2ccn(-c3ccc(F)cc3OC)n2)ccc1C [Cmpd 27],100%,100%,100%,100%,54%,–,–,–,–,–
COC(=O)NCc1cc(-c2ccn(-c3ccc(C)cc3OC)n2)ccc1C [Cmpd 29],99%,100%,100%,100%,63%,–,–,–,–,–
COC(=O)NCc1cc(-n2ccc(-c3ccc(F)cc3F)n2)ccc1C [Cmpd 30],100%,100%,100%,100%,0%,–,–,–,–,–
C#Cc1cc(OC)ccc1-c1cnn(-c2ccc(C)c(CNC(=O)OC)c2)n1 [Cmpd 47],–,–,–,–,–,99* %,100* %,100* %,0* %,–
COC(=O)NCc1cc(-n2ncc(-c3ccc(OC)cc3OCC#N)n2)ccc1C [Cmpd 73],–,–,–,–,–,99* %,100* %,100* %,0* %,–

Molecule,Test A disease control rating ([1]; 200 ppm),Test B disease control rating ([2]; 200 ppm),Test C disease control rating ([3]; 200 ppm),Test D disease control rating ([4]; 200 ppm),Test E disease control rating ([5]; 200 ppm),Test A disease control rating ([1]; 40 ppm (*)),Test B disease control rating ([2]; 40 ppm (*)),Test D disease control rating ([4]; 40 ppm (*)),Test E disease control rating ([5]; 40 ppm (*)),further results
C#CCOc1cc(OC)ccc1-c1cnn(-c2ccc(C)c(CNC(=O)OC)c2)n1 [Cmpd 74],–,–,–,–,–,98* %,100* %,100* %,8* %,–
C=CCOc1cc(OC)ccc1-c1cnn(-c2ccc(C)c(CNC(=O)OC)c2)n1 [Cmpd 75],–,–,–,–,–,90* %,100* %,100* %,8* %,–
COC(=O)NCc1cc(-n2ccc(-c3ccc(OC)cc3C3CC3)n2)ccc1C [Cmpd 82],–,–,–,–,–,99* %,100* %,100* %,0* %,–
CCc1cc(OC)ccc1-c1ccn(-c2ccc(C)c(CNC(=O)OC)c2)n1 [Cmpd 83],–,–,–,–,–,99* %,100* %,100* %,0* %,–
COC(=O)NCc1cc(-n2ncc(-c3ccc(OC)cc3[N+](=O)[O-])n2)ccc1C [Cmpd 85],–,–,–,–,–,99* %,100* %,100* %,0* %,–
CCOc1cc(OC)ccc1-c1cnn(-c2ccc(C)c(CNC(=O)OC)c2)n1 [Cmpd 88],–,–,–,–,–,100* %,100* %,100* %,0* %,–
COC(=O)NCc1cc(-n2ccc(-c3ccc(I)cc3Cl)n2)ccc1C [Cmpd 92],–,–,–,–,–,99* %,100* %,100* %,33* %,–
COC(=O)NCc1cc(-c2ccn(-c3ccc(C#N)cc3C#N)n2)ccc1C [Cmpd 93],0%,0%,–,64%,0%,–,–,–,–,–
COC(=O)NCc1cc(-n2ncc(-c3ccc(I)cc3OC)n2)ccc1C [Cmpd 95],–,–,–,–,–,98* %,100* %,100* %,0* %,–
COC(=O)NCc1cc(-n2ncc(-c3ccc(OC)cc3I)n2)ccc1C [Cmpd 96],–,–,–,–,–,99* %,100* %,100* %,70* %,–
COC(=O)NCc1cc(-n2ncc(-c3ccc(C)cc3OCC#N)n2)ccc1C [Cmpd 98],–,–,–,–,–,95* %,100* %,100* %,6* %,–
C#Cc1ccc(-c2cnn(-c3ccc(C)c(CNC(=O)OC)c3)n2)c(OC)c1 [Cmpd 99],–,–,–,–,–,99* %,100* %,100* %,14* %,–
COC(=O)NCc1cc(-n2ncc(-c3ccc(OC)cc3I)[n+]2[O-])ccc1C [Compound 94],–,–,–,–,–,–,–,–,–,"pest or weed control at 40 ppm ([1]; Blumeria graminis, 192 h, 40 ppm (*)): 98%; pest or weed control at 40 ppm ([2]; 192 h, 40 ppm (*)): 100%; pest or weed control at 40 ppm ([4]; Parastagonospora nodorum, 216 h, 40 ppm (*)): 100%; pest or weed control at 40 ppm ([5]; Botrytis cinerea, 120 h, 40 ppm (*)): 11%"
COC(=O)NCc1cc(-n2ncc(-c3ccc(C)cc3C)n2)ccc1C [Compound 97],–,–,–,–,–,99* %,100* %,100* %,43* %,–
methyl N-[[5-[3-(6-methoxy-2-methyl-3-pyridinyl)-1H-pyrazol-1-yl]-2-methylphenyl]methyl]carbamate [Compound 115],–,–,–,–,–,100* %,100* %,100* %,–,Test C disease control rating ([3]; 40 ppm (*)): 99* %
